*1 amine or outer side, *2 acyl side, *3 side chain or, on linkers, in order; H or OH if unused. Where a SMILES comes first, the peptide text is derived from it. [ ]: non-standard residue; d: D form. The star is where a group is joined. Benzoyl(4-(4-EtNHCO-PhO)) = CCNC(=O)c1ccc(Oc2ccc(C(=O)*)cc2)cc1; Benzoyl(4-OPh(4-CONH2)) = NC(=O)c1ccc(Oc2ccc(C(=O)*)cc2)cc1; X11 = O=C(O)CCCCNC(=O)c1ccc(Oc2ccc(C(=O)*)cc2)cc1; X4 = NC(=O)CCCCNC(=O)c1ccc(Oc2ccc(C(=O)*)cc2)cc1; X12 = O=S(=O)(c1ccc(-c2cn(-c3ccccc3)nn2)cc1)*; X17 = CC(=O)Nc1ccc(-c2ccc(S(=O)(=O)*)cc2)cc1; X10 = NC(=O)c1ccc(-c2ccc(S(=O)(=O)*)cc2)cc1; X15 = CC(=O)c1ccc(-c2ccc(S(=O)(=O)*)cc2)cc1; d(γGlu) = O=C(O)[C@@H](CCC(=O)[*:2])N[*:1]; d(βAsp) = O=C(O)[C@@H](CC(=O)[*:2])N[*:1]; X13 = Cc1ccc(C#Cc2ccc(S(=O)(=O)*)s2)cc1; X5 = O=S(=O)(c1ccc(-c2ccc(CO)cc2)cc1)*; εLys = N[C@@H](CCCCN[*:1])C(=O)[*:2]; NMeI = CC[C@H](C)[C@H](NC)C(=O)O; NMeE = CN[C@@H](CCC(=O)O)C(=O)O; NMeM = CN[C@@H](CCSC)C(=O)O; NMeV = CN[C@H](C(=O)O)C(C)C; β3hP = O=C(O)C[C@@H]1CCCN1; Orn = NCCC[C@H](N)C(=O)O; Dab = NCC[C@H](N)C(=O)O; X18 = NC(=O)[C@H](N)CN*; Dap = NC[C@H](N)C(=O)O; Ahx = NCCCCCC(=O)O; Ava = NCCCCC(=O)O; GABA = NCCCC(=O)O; βAla = NCCC(=O)O
Target: T1, MMP2 (Homo sapiens, UniProt P08253)
T1 sequence (P08253 110-660): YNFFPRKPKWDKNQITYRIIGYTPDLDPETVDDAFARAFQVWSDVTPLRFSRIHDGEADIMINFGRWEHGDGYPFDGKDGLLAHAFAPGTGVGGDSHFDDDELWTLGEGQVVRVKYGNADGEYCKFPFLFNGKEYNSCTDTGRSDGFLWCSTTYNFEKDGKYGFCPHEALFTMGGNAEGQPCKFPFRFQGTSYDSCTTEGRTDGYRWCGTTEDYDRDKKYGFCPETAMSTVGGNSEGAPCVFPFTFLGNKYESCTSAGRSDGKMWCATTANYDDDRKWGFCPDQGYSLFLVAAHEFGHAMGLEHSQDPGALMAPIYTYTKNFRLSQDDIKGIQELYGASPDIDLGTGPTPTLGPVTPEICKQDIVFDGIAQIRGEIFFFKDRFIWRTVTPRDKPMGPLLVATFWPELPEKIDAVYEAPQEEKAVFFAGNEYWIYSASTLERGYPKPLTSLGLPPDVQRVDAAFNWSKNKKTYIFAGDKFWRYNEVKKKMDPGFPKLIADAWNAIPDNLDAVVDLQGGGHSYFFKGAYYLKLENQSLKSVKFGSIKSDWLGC
Assay: Inhibitory effects on human MMP2 (Method 1), enzyme assay with MOCAc-Pro-Leu-Gly-Leu-A2pr(Dnp)-Ala-Arg-NH2 substrate, 96-well
Format: biochemical
Details: Test Example No. 1-1 (Method 1, 96-well microplate); read-out: Human MMP2, IC50
Protocol: In a reaction solution [50 mmol/L Tris-HCl (pH 7.5), 150 mmol/L NaCl, 10 mmol/L CaCl2, 0.05% Brij L23], 100 μg/mL human recombinant MMP2 enzyme and 1 mmol/L 4-Aminophenylmercuric acetate were mixed together, and reacted at 37° C. for 60 minutes. The human MMP2 activated through the reaction was poured into a 96-well microplate to reach a final concentration of 0.7 or 7 ng/mL.

SMILES | IC50 [nM]
CCNC(=O)c1ccc(Oc2ccc(C(=O)NCCCCCC(=O)N[C@@H](CCCCN)C(=O)N[C@@H](CC(=O)O)C(=O)N[C@@H](CCN)C(=O)N[C@@H](CC(C)C)C(=O)N(C)[C@@H](CCC(=O)O)C(=O)N3CCC[C@H]3CC(N)=O)cc2)cc1 [Compound 194] ({Benzoyl(4-(4-EtNHCO-PhO))-Ahx}-KD[Dab]L[NMeE][β3hP]-NH2; N-terminus assumed) | 3.7
CCNC(=O)c1ccc(Oc2ccc(C(=O)NCCCCC(=O)N[C@@H](CCCNC(=N)N)C(=O)N[C@@H](CC(=O)O)C(=O)N[C@@H](CCN)C(=O)N[C@@H](CC(C)C)C(=O)N(C)[C@@H](CCC(=O)O)C(=O)N3CCC[C@H]3CC(N)=O)cc2)cc1 [Compound 196] ({Benzoyl(4-(4-EtNHCO-PhO))-Ava}-RD[Dab]L[NMeE][β3hP]-NH2; N-terminus assumed) | 1.7
CCNC(=O)c1ccc(Oc2ccc(C(=O)NCCCCC(=O)N[C@@H](CCCNC(=N)N)C(=O)N[C@@H](CC(=O)O)C(=O)N[C@@H](CCN)C(=O)N[C@@H](CC(C)C)C(=O)N(C)[C@H](C(=O)N3CCC[C@H]3CC(N)=O)[C@@H](C)CC)cc2)cc1 [Compound 197] ({Benzoyl(4-(4-EtNHCO-PhO))-Ava}-RD[Dab]L[NMeI][β3hP]-NH2; N-terminus assumed) | 2.6
CCNC(=O)c1ccc(Oc2ccc(C(=O)NCCCCCC(=O)N[C@@H](CCCNC(=N)N)C(=O)N[C@@H](CC(=O)O)C(=O)N[C@@H](CCN)C(=O)N[C@@H](CC(C)C)C(=O)N(C)[C@H](C(=O)N3CCC[C@H]3CC(N)=O)[C@@H](C)CC)cc2)cc1 [Compound 198] ({Benzoyl(4-(4-EtNHCO-PhO))-Ahx}-RD[Dab]L[NMeI][β3hP]-NH2; N-terminus assumed) | 5.1
CC(C)C[C@H](NC(=O)[C@H](CCN)NC(=O)[C@H](CC(=O)O)NC(=O)[C@H](CCC(=O)O)NC(=O)CCCCNC(=O)c1ccc(Oc2ccc(C(=O)NCCCCC(N)=O)cc2)cc1)C(=O)N(C)[C@@H](CCC(=O)O)C(=O)N1CCC[C@H]1CC(N)=O [Compound 199] ({X4-Ava}-ED[Dab]L[NMeE][β3hP]-NH2; N-terminus assumed) | 1.4
CC[C@H](C)[C@@H](C(=O)N1CCC[C@H]1CC(N)=O)N(C)C(=O)[C@H](CC(C)C)NC(=O)[C@H](CCN)NC(=O)[C@H](CC(=O)O)NC(=O)[C@H](CCC(=O)O)NC(=O)CCCCNC(=O)c1ccc(Oc2ccc(C(=O)NCCCCC(=O)O)cc2)cc1 [Compound 200] ({X11-Ava}-ED[Dab]L[NMeI][β3hP]-NH2; N-terminus assumed) | 7.4
CC[C@H](C)[C@@H](C(=O)N1CCC[C@H]1CC(N)=O)N(C)C(=O)[C@H](CC(C)C)NC(=O)[C@H](CCN)NC(=O)[C@H](CC(=O)O)NC(=O)[C@H](CCC(=O)O)NC(=O)CCCCNC(=O)c1ccc(Oc2ccc(C(=O)NCCCCC(N)=O)cc2)cc1 [Compound 201] ({X4-Ava}-ED[Dab]L[NMeI][β3hP]-NH2; N-terminus assumed) | 1.4
CC(C)C[C@H](NC(=O)[C@H](CCN)NC(=O)[C@H](CC(=O)O)NC(=O)[C@H](CCC(N)=O)NC(=O)[C@@H](N)CCCNC(=O)c1ccc(Oc2ccc(C(N)=O)cc2)cc1)C(=O)N(C)[C@H](C(=O)NC[C@@H](N)C(N)=O)C(C)C [Compound 536] (H-[Orn](Benzoyl(4-OPh(4-CONH2)))QD[Dab]L[NMeV]-X18) | 0.35
CC[C@H](C)[C@@H](C(=O)NCCCC[C@H](N)C(N)=O)N(C)C(=O)[C@H](CC(C)C)NC(=O)[C@H](CCN)NC(=O)[C@H](CC(=O)O)NC(=O)[C@H](NC(=O)[C@@H](N)CCCNC(=O)c1ccc(Oc2ccc(C(N)=O)cc2)cc1)[C@H](C)O [Compound 554] (H-[Orn](Benzoyl(4-OPh(4-CONH2)))[dT]D[Dab]L[NMeI][εLys]-NH2) | 0.89
CSCC[C@@H](C(=O)N1CCC[C@H]1C(N)=O)N(C)C(=O)[C@H](CC(C)C)NC(=O)[C@H](C)NC(=O)[C@H](CC(=O)O)NC(=O)[C@H](CC(N)=O)NC(=O)CCNS(=O)(=O)c1ccc(C#Cc2ccc(C)cc2)s1 [Compound 587, N-{5-[(4-methylphenyl)ethynyl]thiophene-2-sulfonyl}-β-alanyl-L-asparaginyl-L-α-aspartyl-L-alanyl-L-leucyl-N-methyl-L-methionyl-L-prolinamide] ({X13-βAla}-NDAL[NMeM]P-NH2) | 0.19
CSCC[C@@H](C(=O)N1CCC[C@H]1C(N)=O)N(C)C(=O)[C@H](CC(C)C)NC(=O)[C@H](C)NC(=O)[C@H](CC(=O)O)NC(=O)[C@H](CC(N)=O)NC(=O)CCCNS(=O)(=O)c1ccc(C#Cc2ccc(C)cc2)s1 [Compound 588] ({X13-GABA}-NDAL[NMeM]P-NH2; N-terminus assumed) | 0.12
Cc1ccc(C#Cc2ccc(S(=O)(=O)NCCC(=O)N[C@@H](CC(N)=O)C(=O)N[C@@H](CC(=O)O)C(=O)N[C@@H](C)C(=O)N[C@@H](CC(C)C)C(=O)N(C)[C@H](C(=O)N3CCC[C@H]3C(N)=O)C(C)C)s2)cc1 [Compound 589] ({X13-βAla}-NDAL[NMeV]P-NH2; N-terminus assumed) | 0.12
CC[C@H](C)[C@@H](C(=O)N1CCC[C@H]1CC(N)=O)N(C)C(=O)[C@H](CC(C)C)NC(=O)[C@H](CCN)NC(=O)CC[C@@H](NS(=O)(=O)c1ccc(-c2cn(-c3ccccc3)nn2)cc1)C(=O)O [Compound 608, N-[(2S)-4-amino-1-({(2S)-1-[{(2S,3S)-1-[(2S)-2-(2-amino-2-oxoethyl)pyrrolidin-1-yl]-3-methyl-1-oxopentan-2-yl}(methyl)amino]-4-methyl-1-oxopentan-2-yl}amino)-1-oxobutan-2-yl]-N^2-[4-(1-phenyl-1H-1,2,3-triazol-4-yl)benzene-1-sulfonyl]-D-glutamine] ({X12-d(γGlu)}-[Dab]L[NMeI][β3hP]-NH2) | 0.34
CC[C@H](C)[C@@H](C(=O)N1CCC[C@H]1CC(N)=O)N(C)C(=O)[C@H](CC(C)C)NC(=O)[C@H](C)NC(=O)C[C@@H](NS(=O)(=O)c1ccc(-c2ccc(C(C)=O)cc2)cc1)C(=O)O [Compound 634, N^2-(4′-acetyl[1,1′-biphenyl]-4-sulfonyl)-N-[(2S)-1-({(2S)-1-[{(2S,3S)-1-[(2S)-2-(2-amino-2-oxoethyl)pyrrolidin-1-yl]-3-methyl-1-oxopentan-2-yl}(methyl)amino]-4-methyl-1-oxopentan-2-yl}amino)-1-oxopropan-2-yl]-D-asparagine] ({X15-d(βAsp)}-AL[NMeI][β3hP]-NH2) | 0.13
CC[C@H](C)[C@@H](C(=O)N1CCC[C@H]1CC(N)=O)N(C)C(=O)[C@H](CC(C)C)NC(=O)[C@H](C)NC(=O)C[C@@H](NS(=O)(=O)c1ccc(-c2ccc(C(N)=O)cc2)cc1)C(=O)O [Compound 635] ({X10-d(βAsp)}-AL[NMeI][β3hP]-NH2; N-terminus assumed) | 0.83
CC[C@H](C)[C@@H](C(=O)N1CCC[C@H]1CC(N)=O)N(C)C(=O)[C@H](CC(C)C)NC(=O)[C@H](C)NC(=O)C[C@@H](NS(=O)(=O)c1ccc(-c2ccc(NC(C)=O)cc2)cc1)C(=O)O [Compound 636] ({X17-d(βAsp)}-AL[NMeI][β3hP]-NH2; N-terminus assumed) | 0.94
CC(C)C[C@H](NC(=O)[C@H](CN)NC(=O)C[C@@H](NS(=O)(=O)c1ccc(-c2ccc(CO)cc2)cc1)C(=O)O)C(=O)N(C)[C@@H](CCC(=O)O)C(=O)N1CCC[C@H]1CC(N)=O [Compound 637] ({X5-d(βAsp)}-[Dap]L[NMeE][β3hP]-NH2; N-terminus assumed) | 0.48
